For 25 compounds, IC50 results are on record in US7709471B2, “Compounds” (AstraZeneca AB, priority 2006, dated 2010).

The test system of assay [1] is human colon tumour cell line HT29. The experiment in a line: Cellular Assay (phosphohistone H3 Ser10 mitotic marker, HT29). To be noted: HT-29, 24 h, HT29 cells, read-out: IC50 (cellular assay, phosphohistone H3). Format: cell-based.
Description: Chromosome condensation in mitosis is accompanied by phosphorylation of histone H3 on serine 10.
After 24 hours, cells were fixed in 3.7% (v/v) formaldehyde then permeabilised and blocked for 10 minutes in 100 μl 0.5% (v/v) Triton X-100, 1% (w/v) bovine serum albumin (BSA) in phosphate buffered saline (PBS). […] The raw assay data were analysed by non-linear regression analysis and used to determine an IC50 value for each compound.
A further assay deals with recombinant Plk1 (Homo sapiens, UniProt P53350). Kind of assay: In Vitro Plk1 Enzyme Assay (SPA, GST-Cdc25C phosphorylation). To be noted: ATP 64 nM, 90 minutes, read-out: IC50 (Plk1 enzyme inhibition). Format: biochemical.
recombinant Plk1, sequence (P53350 whole entry): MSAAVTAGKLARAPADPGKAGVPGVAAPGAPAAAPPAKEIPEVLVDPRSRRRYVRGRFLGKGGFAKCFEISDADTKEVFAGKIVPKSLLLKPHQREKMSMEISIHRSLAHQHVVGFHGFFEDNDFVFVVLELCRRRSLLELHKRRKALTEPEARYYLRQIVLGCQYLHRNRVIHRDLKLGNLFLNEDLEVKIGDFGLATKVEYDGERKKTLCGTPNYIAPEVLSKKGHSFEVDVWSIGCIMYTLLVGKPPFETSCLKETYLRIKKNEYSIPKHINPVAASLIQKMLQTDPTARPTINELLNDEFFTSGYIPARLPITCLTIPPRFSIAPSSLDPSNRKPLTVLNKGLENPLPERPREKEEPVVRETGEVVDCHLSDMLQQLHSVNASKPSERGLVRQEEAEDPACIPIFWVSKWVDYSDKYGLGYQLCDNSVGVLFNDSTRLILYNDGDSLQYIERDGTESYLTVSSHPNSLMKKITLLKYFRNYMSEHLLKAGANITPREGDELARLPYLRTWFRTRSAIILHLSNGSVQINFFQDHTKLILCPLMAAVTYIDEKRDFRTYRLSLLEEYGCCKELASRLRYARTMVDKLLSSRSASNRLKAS

Description for recombinant Plk1: Reactions were stopped by addition of EDTA (110 mM) and the Cdc25C substrate captured via its GST tag to anti-GST antibody (Molecular Probes, Cat No A-5800) coated Protein A PVT SPA beads (Amersham Biosciences, Catalogue No. RPQ0019; 250 μg/well) in 50 mM HEPES pH7.5 buffer containing 0.05% (w/v) sodium azide and incubated for up to 2 hours, followed by the addition of 20 μl of 4M caesium chloride (final assay concentration of 1M). Plates were then left in the dark overnight before counting on a Packard TopCount NXT.
Radiolabelled phosphorylated substrate is formed in situ as a result of Plk1 mediated phosphorylation. The SPA beads contain a scintillant that can be stimulated to emit light. This stimulation only occurs when a radiolabelled phosphorylated substrate is bound to the surface of the coated SPA bead causing the emission of blue light that can be measured on a scintillation counter. Accordingly, the extent of Plk1 mediated Cdc25C phosphorylation was assessed. The raw assay data were then analysed by non-linear regression analysis and Plk1 enzyme inhibition for a given test compound is expressed as an IC50 value.

`COc1cc(C(=O)N[C@H]2[C@@H]3CN(C(=O)OCc4ccccc4)C[C@@H]32)ccc1Nc1ncc2c(n1)N(C1CCCC1)CCC(=O)N2C` [Example 51, Benzyl(1S,5R)-6-[[4-[(6-cyclopentyl-2-methyl-3-oxo-2,6,8,10-tetrazabicyclo[5.4.0]undeca-8,10,12-trien-9-yl)amino]-3-methoxy-benzoyl]amino]-3-azabicyclo[3.1.0]hexane-3-carboxylate]: the IC50 in assay [1] was < 1000 nM; on recombinant Plk1, < 100000 nM.
The matching figures for `COc1cc(C(=O)NCCCCn2ccnc2)ccc1Nc1ncc2c(n1)N(C1CCCC1)CCC(=O)N2C` [Example 31, 4-[(6-cyclopentyl-2-methyl-3-oxo-2,6,8,10-tetrazabicyclo[5.4.0]undeca-8,10,12-trien-9-yl)amino]-N-(4-imidazol-1-ylbutyl)-3-methoxy-benzamide]: < 300 nM and < 1000 nM.
On the same counts, the results for `CN1CCC(NC(=O)c2ccc(Nc3ncc4c(n3)N(C3CCCC3)CCC(=O)N4C)c(F)c2)CC1` [Example 194, 4-[(6-cyclopentyl-2-methyl-3-oxo-2,6,8,10-tetrazabicyclo[5.4.0]undeca-8,10,12-trien-9-yl)amino]-3-fluoro-N-(1-methyl-4-piperidyl)benzamide] are < 300 nM and < 300 nM.
`COc1cc(C(N)=O)ccc1Nc1ncc2c(n1)N(C1CCCC1)CCC(=O)N2C` [Example 92, 4-[(6-cyclopentyl-2-methyl-3-oxo-2,6,8,10-tetrazabicyclo[5.4.0]undeca-8,10,12-trien-9-yl)amino]-3-methoxy-benzamide]: the IC50 (in assay [1]; on recombinant Plk1) was < 300 nM in each case.
Turning to `COc1cc(C(=O)NC2CCN(C)CC2)ccc1Nc1ncc2c(n1)N(C)CCC(=O)N2C` [Example 5, 4-[(2,6-Dimethyl-5-oxo-2,6,9,11-tetrazabicyclo[5.4.0]undeca-7,9,11-trien-10-yl)amino]-3-methoxy-N-(1-methyl-4-piperidyl)benzamide], the half-inhibitory concentration (IC50) is < 30000 nM in assay [1] and < 300 nM at recombinant Plk1.
On the same counts, the results for `CCCC1CN(C2CCCC2)c2nc(Nc3ccc(C(=O)NC4CCN(C)CC4)cc3OC)ncc2N(C)C1=O` (single isomer, unassigned) [Example 238] are < 1000 nM and < 1000 nM.
For `COc1cc(C(=O)NCC(C)(C)CN)ccc1Nc1ncc2c(n1)N(C1CCCC1)CCC(=O)N2C` [Example 46, N-(3-amino-2,2-dimethyl-propyl)-4-[(6-cyclopentyl-2-methyl-3-oxo-2,6,8,10-tetrazabicyclo[5.4.0]undeca-8,10,12-trien-9-yl)amino]-3-methoxy-benzamide], the IC50 (in assay [1]; at recombinant Plk1) was < 300 nM in each case.
With `COc1cc(C(=O)N[C@@H]2CC[C@H](C(=O)N(C)C)C2)ccc1Nc1ncc2c(n1)N(C1CCCC1)CCC(=O)N2C` [Example 88, 4-[(6-cyclopentyl-2-methyl-3-oxo-2,6,8,10-tetrazabicyclo[5.4.0]undeca-8,10,12-trien-9-yl)amino]-N-[(1R,3S)-3-(dimethylcarbamoyl)cyclopentyl]-3-methoxy-benzamide], the IC50 was < 300 nM in assay [1] and < 100000 nM at recombinant Plk1.
The matching figures for `COc1cc(C(=O)NC2CCN(C(=O)OCc3ccccc3)CC2)ccc1Nc1ncc2c(n1)N(C1CCCC1)CCC(=O)N2C` [Example 54, Benzyl 4-[[4-[(6-cyclopentyl-2-methyl-3-oxo-2,6,8,10-tetrazabicyclo[5.4.0]undeca-8,10,12-trien-9-yl)amino]-3-methoxy-benzoyl]amino]piperidine-1-carboxylate]: < 300 nM and < 100000 nM.
The matching figures for `CC(=O)c1cccc(Nc2ncc3c(n2)N(C2CCCC2)CCC(=O)N3C)c1` [Example 165, 9-[(3-acetylphenyl)amino]-6-cyclopentyl-2-methyl-2,6,8,10-tetrazabicyclo[5.4.0]undeca-8,10,12-trien-3-one]: < 30000 nM and < 1000 nM.
The matching figures for `COc1cc(C(=O)N[C@@H]2CCNC2)ccc1Nc1ncc2c(n1)N(C1CCCC1)CCC(=O)N2C` [Example 55, 4-[(6-cyclopentyl-2-methyl-3-oxo-2,6,8,10-tetrazabicyclo[5.4.0]undeca-8,10,12-trien-9-yl)amino]-3-methoxy-N-[(3R)-pyrrolidin-3-yl]benzamide]: < 300 nM and < 300 nM.
In the case of `COCCN1CCC(NC(=O)c2ccc(Nc3ncc4c(n3)N(C3CCCC3)CCC(=O)N4C)c(OC)c2)CC1` [Example 29, 4-[(6-cyclopentyl-2-methyl-3-oxo-2,6,8,10-tetrazabicyclo[5.4.0]undeca-8,10,12-trien-9-yl)amino]-3-methoxy-N-[1-(2-methoxyethyl)-4-piperidyl]benzamide], the IC50 (in assay [1]; at recombinant Plk1) was < 300 nM throughout.
Turning to `COc1cc(C(=O)NCCCN2CCCCC2)ccc1Nc1ncc2c(n1)N(C1CCCC1)CCC(=O)N2C` [Example 69, 4-[(6-cyclopentyl-2-methyl-3-oxo-2,6,8,10-tetrazabicyclo[5.4.0]undeca-8,10,12-trien-9-yl)amino]-3-methoxy-N-[3-(1-piperidyl)propyl]benzamide], the IC50 (in assay [1]; at recombinant Plk1) was < 300 nM each time.
For `COc1cc(C(=O)NCCN2CCCCC2)ccc1Nc1ncc2c(n1)N(C(C)C)CCC(=O)N2C` [Example 205, 3-methoxy-4-[(2-methyl-3-oxo-6-propan-2-yl-2,6,8,10-tetrazabicyclo[5.4.0]undeca-7,9,11-trien-9-yl)amino]-N-[2-(1-piperidyl)ethyl]benzamide], the results for the IC50 (in assay [1]; on recombinant Plk1) were < 300 nM and < 100000 nM, respectively.
For the compound `COc1cc(C(=O)NC2CCCCC2)ccc1Nc1ncc2c(n1)N(C1CCCC1)CCC(=O)N2C` [Example 90, N-cyclohexyl-4-[(6-cyclopentyl-2-methyl-3-oxo-2,6,8,10-tetrazabicyclo[5.4.0]undeca-8,10,12-trien-9-yl)amino]-3-methoxy-benzamide], the results for the IC50 (in assay [1]; on recombinant Plk1) were < 300 nM and < 1000 nM, respectively.
The matching figures for `COc1cc(C(=O)NCCN2CCOCC2)ccc1Nc1ncc2c(n1)N(C1CCCC1)CCC(=O)N2C` [Example 13, 4-[(6-cyclopentyl-2-methyl-3-oxo-2,6,8,10-tetrazabicyclo[5.4.0]undeca-8,10,12-trien-9-yl)amino]-3-methoxy-N-(2-morpholin-4-ylethyl)benzamide]: < 300 nM and < 300 nM.
In the case of `COc1cc(C(=O)NC2CCN(C)CC2)ccc1Nc1ncc2c(n1)N(C1CCCCC1)CC1(CC1)C(=O)N2C` [Example 430, 4-(9′-cyclohexyl-5′-methyl-6′-oxo-5′,6′,8′,9′-tetrahydrospiro[cyclopropane-1,7′-pyrimido[5,4-b][1,4]diazepine]-2′-ylamino)-3-methoxy-N-(1-methyl-4-piperidyl)benzamide], the IC50 (in assay [1]; at recombinant Plk1) was < 300 nM each time.
In the case of `COc1cc(C(=O)NCCC2CCCCN2C)ccc1Nc1ncc2c(n1)N(C1CCCC1)CCC(=O)N2C` (centres unmarked) [Example 85, 4-[(6-cyclopentyl-2-methyl-3-oxo-2,6,8,10-tetrazabicyclo[5.4.0]undeca-8,10,12-trien-9-yl)amino]-3-methoxy-N-[2-(1-methyl-2-piperidyl)ethyl]benzamide], the IC50 (in assay [1]; at recombinant Plk1) was < 300 nM each time.
Turning to `CN1C(=O)CCN(C2CCCC2)c2nc(Nc3ccc(Cl)c(CO)c3)ncc21` [Example 131, 9-[[4-chloro-3-(hydroxymethyl)phenyl]amino]-6-cyclopentyl-2-methyl-2,6,8,10-tetrazabicyclo[5.4.0]undeca-8,10,12-trien-3-one], the IC50 in assay [1] was < 30000 nM; on recombinant Plk1, < 1000 nM.
In the case of `COc1cc(C(=O)NC2CC(C)(C)N(C)C(C)(C)C2)ccc1Nc1ncc2c(n1)N(C1CCCC1)CCC(=O)N2C` [Example 72, 4-[(6-cyclopentyl-2-methyl-3-oxo-2,6,8,10-tetrazabicyclo[5.4.0]undeca-8,10,12-trien-9-yl)amino]-3-methoxy-N-(1,2,2,6,6-pentamethyl-4-piperidyl)benzamide], the IC50 (in assay [1]; at recombinant Plk1) was < 300 nM each time.
In the case of `CCCN1CC[C@@H](NC(=O)c2ccc(Nc3ncc4c(n3)N(C3CCCC3)CCC(=O)N4C)c(OC)c2)C1` [Example 327, 4-[(2-cyclopentyl-6-methyl-5-oxo-2,6,9,11-tetrazabicyclo[5.4.0]undeca-7,9,11-trien-10-yl)amino]-3-methoxy-N-[(3R)-1-propylpyrrolidin-3-yl]benzamide], the IC50 (in assay [1]; on recombinant Plk1) was < 300 nM in each case.
`COc1cc(C(=O)NCCN2CCOCC2)ccc1Nc1ncc2c(n1)N(C(C)C)CCC(=O)N2C` [Example 219, 3-methoxy-4-[(2-methyl-3-oxo-6-propan-2-yl-2,6,8,10-tetrazabicyclo[5.4.0]undeca-7,9,11-trien-9-yl)amino]-N-(2-morpholin-4-ylethyl)benzamide]: the values for the IC50 (in assay [1]; on recombinant Plk1) were < 1000 nM and < 300 nM, respectively.
On the same counts, the results for `CN1C(=O)CCN(C2CCCC2)c2nc(Nc3cccc(OCCN4CCOCC4)c3)ncc21` [Example 180, 6-cyclopentyl-2-methyl-9-[[3-(2-morpholin-4-ylethoxy)phenyl]amino]-2,6,8,10-tetrazabicyclo[5.4.0]undeca-8,10,12-trien-3-one] are < 30000 nM and < 100000 nM.
On the same counts, the results for `CN1CCC(NC(=O)c2ccc(Nc3ncc4c(n3)N(C3CCCC3)CCC(=O)N4C)cn2)CC1` [Example 270, 5-[(6-cyclopentyl-2-methyl-3-oxo-2,6,8,10-tetrazabicyclo[5.4.0]undeca-8,10,12-trien-9-yl)amino]-N-(1-methyl-4-piperidyl)pyridine-2-carboxamide] are < 30000 nM and < 300 nM.
As for `CC(C)N1CCC(=O)N(C)c2cnc(Nc3ccc(C(=O)NCCN4CCOCC4)cc3Cl)nc21` [Example 228, 3-chloro-4-[(2-methyl-3-oxo-6-propan-2-yl-2,6,8,10-tetrazabicyclo[5.4.0]undeca-7,9,11-trien-9-yl)amino]-N-(2-morpholin-4-ylethyl)benzamide], the IC50 in assay [1] was < 30000 nM; at recombinant Plk1 it was < 1000 nM.

A word on the IC50: it is the concentration at which inhibition is half-maximal.
